The record followed here is US12479847B2 (DANA-FARBER CANCER INSTITUTE, INC., priority 2019, dated 2025).

Assay in all cases: KINOMEscan (ScanMAX) kinase profiling
Holding throughout (assay type): binding

Experiment [1] deals with T1, panel of 468 kinases (Homo sapiens, UniProt P00519, E255K).
T1 construct: purchased KINOMEscan (ScanMAX) service
Conditions: ABL1(E255K)-phosphorylated; 1 μM; read-out: % control.

In experiment [2] the target is T2, panel of 468 kinases (Homo sapiens, UniProt Q8NEV4).
T2 construct: purchased KINOMEscan (ScanMAX) service
Conditions: MYO3A; 1 μM; read-out: % control.

In experiment [3] the target is T3, panel of 468 kinases (Homo sapiens, UniProt P07949, V804M).
T3 construct: purchased KINOMEscan (ScanMAX) service
Conditions: RET(V804M); 1 μM; read-out: % control.

Experiment [4] concerns the target T4, panel of 468 kinases (Homo sapiens, UniProt P00533, L858R/T790M).
T4 construct: purchased KINOMEscan (ScanMAX) service
Conditions: EGFR(L858R,T790M); 1 μM; read-out: % control.

In experiment [5] the target is T5, panel of 468 kinases (Homo sapiens, UniProt P57059).
T5 construct: purchased KINOMEscan (ScanMAX) service
T5 sequence (P57059 whole entry): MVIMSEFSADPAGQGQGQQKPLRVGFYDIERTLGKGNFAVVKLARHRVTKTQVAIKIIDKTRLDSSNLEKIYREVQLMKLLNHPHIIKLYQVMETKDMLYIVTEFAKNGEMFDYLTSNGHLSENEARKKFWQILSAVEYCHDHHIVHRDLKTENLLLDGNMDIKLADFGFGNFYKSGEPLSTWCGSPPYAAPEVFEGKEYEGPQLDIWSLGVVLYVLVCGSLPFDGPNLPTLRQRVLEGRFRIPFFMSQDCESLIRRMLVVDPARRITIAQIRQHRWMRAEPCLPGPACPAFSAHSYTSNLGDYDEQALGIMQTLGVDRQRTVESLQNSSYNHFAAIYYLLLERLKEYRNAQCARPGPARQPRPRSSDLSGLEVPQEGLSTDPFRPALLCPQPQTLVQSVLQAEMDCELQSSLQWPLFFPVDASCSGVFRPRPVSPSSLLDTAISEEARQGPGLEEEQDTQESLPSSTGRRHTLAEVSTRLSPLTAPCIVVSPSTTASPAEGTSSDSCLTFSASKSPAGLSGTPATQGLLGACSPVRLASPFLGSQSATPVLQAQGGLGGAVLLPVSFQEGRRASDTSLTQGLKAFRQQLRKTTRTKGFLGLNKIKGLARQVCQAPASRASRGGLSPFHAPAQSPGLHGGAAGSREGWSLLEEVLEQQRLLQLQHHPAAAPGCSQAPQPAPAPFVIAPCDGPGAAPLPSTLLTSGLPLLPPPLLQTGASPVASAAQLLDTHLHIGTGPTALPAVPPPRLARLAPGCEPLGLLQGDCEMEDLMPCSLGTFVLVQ
Particulars: SIK; 1 μM; read-out: % control.

The target in experiment [6] is T6, panel of 468 kinases (Homo sapiens, UniProt P07948).
T6 construct: purchased KINOMEscan (ScanMAX) service
Particulars: LYN; 1 μM; read-out: % control.

Experiment [7] has as its target T7, panel of 468 kinases (Homo sapiens, UniProt P53350).
T7 construct: purchased KINOMEscan (ScanMAX) service
Particulars: PLK1; 1 μM; read-out: % control.

Experiment [8] addresses T8, panel of 468 kinases (Homo sapiens, UniProt Q9NY57).
T8 construct: purchased KINOMEscan (ScanMAX) service
Particulars: YANK2; 1 μM; read-out: % control.

For experiment [9], the target named is T9, panel of 468 kinases (Homo sapiens, UniProt P45983).
T9 construct: purchased KINOMEscan (ScanMAX) service
T9 sequence (P45983 whole entry): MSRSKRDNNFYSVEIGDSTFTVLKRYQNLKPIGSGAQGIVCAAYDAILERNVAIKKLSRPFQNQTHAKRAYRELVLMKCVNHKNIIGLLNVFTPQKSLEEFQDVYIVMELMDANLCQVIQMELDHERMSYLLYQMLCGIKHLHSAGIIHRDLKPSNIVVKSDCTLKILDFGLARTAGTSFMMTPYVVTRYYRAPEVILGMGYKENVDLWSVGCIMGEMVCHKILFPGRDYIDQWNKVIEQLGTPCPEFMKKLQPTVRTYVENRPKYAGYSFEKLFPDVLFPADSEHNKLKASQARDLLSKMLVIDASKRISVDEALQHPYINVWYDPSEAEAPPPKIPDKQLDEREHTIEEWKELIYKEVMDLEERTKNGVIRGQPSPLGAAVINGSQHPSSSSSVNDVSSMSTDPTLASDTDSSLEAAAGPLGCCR
Conditions: JNK1; 1 μM; read-out: % control.

Experiment [10] deals with T10, panel of 468 kinases (Homo sapiens, UniProt Q8NI60).
T10 construct: purchased KINOMEscan (ScanMAX) service
T10 sequence (Q8NI60 163-647): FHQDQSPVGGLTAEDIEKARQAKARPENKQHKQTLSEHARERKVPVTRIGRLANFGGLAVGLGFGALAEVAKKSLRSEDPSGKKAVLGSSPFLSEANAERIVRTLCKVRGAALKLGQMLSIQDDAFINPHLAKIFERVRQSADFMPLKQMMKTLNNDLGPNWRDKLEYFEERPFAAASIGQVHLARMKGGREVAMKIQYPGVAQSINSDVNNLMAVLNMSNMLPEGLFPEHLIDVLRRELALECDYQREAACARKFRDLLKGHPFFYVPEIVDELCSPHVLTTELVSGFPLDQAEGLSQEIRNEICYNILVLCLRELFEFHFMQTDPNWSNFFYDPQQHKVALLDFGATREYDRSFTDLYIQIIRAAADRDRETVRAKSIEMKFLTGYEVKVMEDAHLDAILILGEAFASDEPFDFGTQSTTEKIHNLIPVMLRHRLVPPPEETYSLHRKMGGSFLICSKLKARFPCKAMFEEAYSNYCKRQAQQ
Particulars: ADCK3; 1 μM; read-out: % control.

Experiment [11] addresses T11, panel of 468 kinases (Homo sapiens, UniProt Q13976).
T11 construct: purchased KINOMEscan (ScanMAX) service
T11 sequence (Q13976 1-671): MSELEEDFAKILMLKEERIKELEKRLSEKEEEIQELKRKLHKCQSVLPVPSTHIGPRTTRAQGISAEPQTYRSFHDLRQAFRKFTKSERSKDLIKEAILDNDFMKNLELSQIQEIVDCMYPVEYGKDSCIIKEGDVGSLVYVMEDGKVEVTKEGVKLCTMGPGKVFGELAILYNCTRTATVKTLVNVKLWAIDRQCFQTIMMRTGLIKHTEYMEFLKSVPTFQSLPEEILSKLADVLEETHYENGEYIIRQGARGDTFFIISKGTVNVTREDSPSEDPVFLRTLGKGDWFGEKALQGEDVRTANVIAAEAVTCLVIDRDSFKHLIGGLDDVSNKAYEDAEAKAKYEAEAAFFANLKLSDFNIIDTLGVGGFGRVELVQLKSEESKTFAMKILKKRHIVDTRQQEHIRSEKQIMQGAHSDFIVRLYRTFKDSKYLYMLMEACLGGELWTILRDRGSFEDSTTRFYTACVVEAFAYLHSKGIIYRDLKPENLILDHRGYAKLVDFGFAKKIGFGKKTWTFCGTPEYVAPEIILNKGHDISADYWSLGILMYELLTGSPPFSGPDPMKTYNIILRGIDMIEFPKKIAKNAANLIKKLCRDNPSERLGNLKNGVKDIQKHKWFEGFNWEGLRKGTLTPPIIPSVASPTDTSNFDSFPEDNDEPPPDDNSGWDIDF
Conditions: PRKG1; 1 μM; read-out: % control.

The target of experiment [12] is T12, panel of 468 kinases (Homo sapiens, UniProt Q9BQI3).
T12 construct: purchased KINOMEscan (ScanMAX) service
T12 sequence (Q9BQI3 whole entry): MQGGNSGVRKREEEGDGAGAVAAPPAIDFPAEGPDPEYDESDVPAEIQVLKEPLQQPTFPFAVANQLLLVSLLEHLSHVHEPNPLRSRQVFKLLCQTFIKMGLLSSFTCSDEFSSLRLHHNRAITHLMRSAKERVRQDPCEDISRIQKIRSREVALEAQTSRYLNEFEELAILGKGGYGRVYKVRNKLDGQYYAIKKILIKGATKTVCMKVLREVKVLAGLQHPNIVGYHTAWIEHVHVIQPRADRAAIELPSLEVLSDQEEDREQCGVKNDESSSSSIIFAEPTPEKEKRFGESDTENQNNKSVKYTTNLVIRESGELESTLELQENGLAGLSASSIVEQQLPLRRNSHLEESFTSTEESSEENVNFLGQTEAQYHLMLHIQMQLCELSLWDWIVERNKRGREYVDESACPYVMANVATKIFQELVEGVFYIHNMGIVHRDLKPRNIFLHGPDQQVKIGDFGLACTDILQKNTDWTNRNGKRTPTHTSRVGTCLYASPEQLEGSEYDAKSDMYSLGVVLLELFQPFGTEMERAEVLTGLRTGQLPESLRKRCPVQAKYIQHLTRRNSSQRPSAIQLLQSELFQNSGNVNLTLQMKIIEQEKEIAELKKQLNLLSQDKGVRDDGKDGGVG
Particulars: EIF2AK1; 1 μM; read-out: % control.

Experiment [13] has as its target T13, panel of 468 kinases (Homo sapiens, UniProt P31751).
T13 construct: purchased KINOMEscan (ScanMAX) service
Particulars: AKT2; 1 μM; read-out: % control.

Experiment [14] addresses T14, panel of 468 kinases (Homo sapiens, UniProt P08069).
T14 construct: purchased KINOMEscan (ScanMAX) service
Conditions: IGF1R; 1 μM; read-out: % control.

In experiment [15] the target is T15, panel of 468 kinases (Homo sapiens, UniProt Q9UPZ9).
T15 construct: purchased KINOMEscan (ScanMAX) service
T15 sequence (Q9UPZ9 1-632): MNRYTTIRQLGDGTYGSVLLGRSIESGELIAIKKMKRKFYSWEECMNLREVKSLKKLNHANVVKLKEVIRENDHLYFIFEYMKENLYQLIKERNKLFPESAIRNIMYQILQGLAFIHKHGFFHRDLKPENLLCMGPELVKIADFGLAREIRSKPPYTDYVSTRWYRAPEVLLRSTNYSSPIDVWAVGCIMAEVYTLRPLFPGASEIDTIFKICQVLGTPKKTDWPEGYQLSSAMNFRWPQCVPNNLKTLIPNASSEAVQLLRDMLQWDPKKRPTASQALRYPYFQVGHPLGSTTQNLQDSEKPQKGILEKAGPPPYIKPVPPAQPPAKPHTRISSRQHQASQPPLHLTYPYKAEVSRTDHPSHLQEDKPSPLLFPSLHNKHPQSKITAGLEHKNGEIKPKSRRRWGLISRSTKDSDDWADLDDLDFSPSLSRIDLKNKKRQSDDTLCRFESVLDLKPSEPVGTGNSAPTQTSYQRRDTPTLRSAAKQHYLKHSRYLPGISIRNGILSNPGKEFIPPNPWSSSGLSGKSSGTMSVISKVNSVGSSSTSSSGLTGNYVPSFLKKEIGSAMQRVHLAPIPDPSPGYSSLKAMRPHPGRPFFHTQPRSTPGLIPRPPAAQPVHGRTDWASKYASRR
Particulars: ICK; 1 μM; read-out: % control.

T8 sequence (Q9NY57 whole entry): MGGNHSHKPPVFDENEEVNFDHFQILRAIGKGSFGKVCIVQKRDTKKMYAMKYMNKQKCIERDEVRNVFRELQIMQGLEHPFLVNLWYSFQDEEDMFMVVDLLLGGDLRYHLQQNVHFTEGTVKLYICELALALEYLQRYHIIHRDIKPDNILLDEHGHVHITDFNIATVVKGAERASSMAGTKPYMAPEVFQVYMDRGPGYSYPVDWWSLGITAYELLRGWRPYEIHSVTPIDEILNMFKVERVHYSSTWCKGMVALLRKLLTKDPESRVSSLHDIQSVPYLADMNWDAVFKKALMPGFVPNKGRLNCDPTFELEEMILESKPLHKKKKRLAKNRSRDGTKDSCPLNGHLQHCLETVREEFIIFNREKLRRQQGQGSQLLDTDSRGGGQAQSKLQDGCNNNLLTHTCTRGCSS
T7 sequence (P53350 whole entry): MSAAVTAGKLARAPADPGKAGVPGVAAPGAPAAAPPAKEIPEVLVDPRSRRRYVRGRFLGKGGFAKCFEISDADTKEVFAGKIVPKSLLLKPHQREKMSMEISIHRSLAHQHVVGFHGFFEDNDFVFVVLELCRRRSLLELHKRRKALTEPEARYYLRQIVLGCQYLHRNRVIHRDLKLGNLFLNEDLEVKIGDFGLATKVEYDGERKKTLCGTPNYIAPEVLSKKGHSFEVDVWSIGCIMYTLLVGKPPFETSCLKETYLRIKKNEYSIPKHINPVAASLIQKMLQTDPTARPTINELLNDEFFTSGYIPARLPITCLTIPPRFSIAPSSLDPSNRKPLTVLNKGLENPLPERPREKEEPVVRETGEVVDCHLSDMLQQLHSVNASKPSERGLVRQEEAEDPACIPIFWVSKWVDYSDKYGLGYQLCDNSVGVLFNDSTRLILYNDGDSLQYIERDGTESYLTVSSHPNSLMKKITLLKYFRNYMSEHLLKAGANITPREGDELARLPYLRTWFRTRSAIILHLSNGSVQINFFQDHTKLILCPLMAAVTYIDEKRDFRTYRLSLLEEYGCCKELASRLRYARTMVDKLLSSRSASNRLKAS
T1 sequence (P00519 whole entry E255K): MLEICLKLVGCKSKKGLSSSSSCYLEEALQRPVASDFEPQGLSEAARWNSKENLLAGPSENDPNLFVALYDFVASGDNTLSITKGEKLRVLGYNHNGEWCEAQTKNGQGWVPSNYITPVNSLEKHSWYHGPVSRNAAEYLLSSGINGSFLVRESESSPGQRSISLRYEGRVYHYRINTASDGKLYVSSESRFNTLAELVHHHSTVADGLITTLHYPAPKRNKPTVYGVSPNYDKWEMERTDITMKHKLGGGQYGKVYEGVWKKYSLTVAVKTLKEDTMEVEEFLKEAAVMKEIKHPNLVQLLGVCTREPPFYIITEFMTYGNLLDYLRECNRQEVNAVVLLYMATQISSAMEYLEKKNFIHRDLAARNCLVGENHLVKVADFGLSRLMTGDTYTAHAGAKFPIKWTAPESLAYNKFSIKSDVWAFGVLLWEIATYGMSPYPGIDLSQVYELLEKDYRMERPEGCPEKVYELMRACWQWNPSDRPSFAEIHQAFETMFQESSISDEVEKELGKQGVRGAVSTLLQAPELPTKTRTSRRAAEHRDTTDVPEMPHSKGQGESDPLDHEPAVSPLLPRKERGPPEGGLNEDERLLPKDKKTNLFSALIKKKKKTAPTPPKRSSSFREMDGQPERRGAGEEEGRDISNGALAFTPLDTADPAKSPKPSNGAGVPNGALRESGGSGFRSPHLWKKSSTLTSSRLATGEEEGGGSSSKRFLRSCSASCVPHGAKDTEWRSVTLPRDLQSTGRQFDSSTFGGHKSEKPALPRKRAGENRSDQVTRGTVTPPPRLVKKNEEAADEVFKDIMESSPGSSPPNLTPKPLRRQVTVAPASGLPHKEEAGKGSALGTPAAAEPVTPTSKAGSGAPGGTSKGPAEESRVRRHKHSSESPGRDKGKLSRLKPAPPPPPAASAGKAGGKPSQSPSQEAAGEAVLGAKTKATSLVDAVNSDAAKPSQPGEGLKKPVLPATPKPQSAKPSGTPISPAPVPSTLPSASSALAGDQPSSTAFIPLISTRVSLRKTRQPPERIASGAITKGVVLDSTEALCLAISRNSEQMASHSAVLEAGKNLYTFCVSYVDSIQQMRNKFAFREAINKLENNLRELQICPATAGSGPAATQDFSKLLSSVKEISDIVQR
T13 sequence (P31751 whole entry): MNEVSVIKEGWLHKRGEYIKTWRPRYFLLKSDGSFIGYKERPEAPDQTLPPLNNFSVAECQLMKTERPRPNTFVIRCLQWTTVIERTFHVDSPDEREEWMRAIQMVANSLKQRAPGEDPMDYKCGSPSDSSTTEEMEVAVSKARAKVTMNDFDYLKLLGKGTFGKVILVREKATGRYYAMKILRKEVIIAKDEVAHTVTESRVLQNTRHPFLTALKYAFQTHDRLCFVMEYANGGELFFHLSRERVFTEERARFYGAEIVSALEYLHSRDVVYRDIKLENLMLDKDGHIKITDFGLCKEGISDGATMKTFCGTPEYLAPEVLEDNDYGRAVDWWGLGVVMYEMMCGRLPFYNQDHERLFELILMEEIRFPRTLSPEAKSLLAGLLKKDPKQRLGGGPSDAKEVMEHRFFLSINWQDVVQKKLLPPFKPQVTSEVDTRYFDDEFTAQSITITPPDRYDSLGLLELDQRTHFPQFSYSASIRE

On to `CNc1nc(Nc2ccc(S(=O)(=O)N3CCC(N4CCOCC4)CC3)cc2OC)nc2[nH]cc(Cl)c12` [Compound 12, 5-chloro-N2-(2-methoxy-4-((4-morpholinopiperidin-1-yl)sulfonyl)phenyl)-N4-methyl-7H-pyrrolo[2,3-d]pyrimidine-2,4-diamine], for which the remaining binding at 1 µM was determined as 92% at panel of 468 kinases [1]; 100% on panel of 468 kinases [2]; 96% on panel of 468 kinases [3]; 66% at panel of 468 kinases [4]; 100% at panel of 468 kinases [5]; 100% on panel of 468 kinases [6]. Further, the remaining binding at 1 µM at panel of 468 kinases [7] worked out at 82%; on panel of 468 kinases [8], 96%; at panel of 468 kinases [9], 11%; on panel of 468 kinases [10] it was 100%; at panel of 468 kinases [11], 100%; at panel of 468 kinases [12] it was 100%. Also, the remaining binding at 1 µM was 100% on panel of 468 kinases [13], 100% at panel of 468 kinases [14] and 77% on panel of 468 kinases [15].
As for `CNc1nc(Nc2ccc(C(=O)N3CCC(N4CCOCC4)CC3)c3c2OCO3)nc2[nH]cc(Cl)c12` [Compound 75, (7-((5-chloro-4-(methylamino)-7H-pyrrolo[2,3-d]pyrimidin-2-yl)amino)benzo[d][1,3]dioxol-4-yl)(4-morpholinopiperidin-1-yl)methanone], the remaining binding at 1 µM on panel of 468 kinases [1] is 100%; at panel of 468 kinases [2], 98%; at panel of 468 kinases [3] it was 33%; at panel of 468 kinases [4] it was 45%; at panel of 468 kinases [5], 100%; on panel of 468 kinases [6], 100%. In addition, the remaining binding at 1 µM amounted to 78% on panel of 468 kinases [7]; 100% on panel of 468 kinases [8]; 0.1% at panel of 468 kinases [9]; 100% on panel of 468 kinases [10]; 100% at panel of 468 kinases [11]; 62% at panel of 468 kinases [12]. Besides, the remaining binding at 1 µM came out at 100% at panel of 468 kinases [13], 89% at panel of 468 kinases [14] and 89% on panel of 468 kinases [15].
`CNc1nc(Nc2ccc(P3(=O)CCN(C4CCOCC4)CC3)cc2OC)nc2[nH]cc(Cl)c12` [Compound 77, 4-(4-((5-chloro-4-(methylamino)-7H-pyrrolo[2,3-d]pyrimidin-2-yl)amino)-3-methoxyphenyl)-1-(tetrahydro-2H-pyran-4-yl)-1,4-azaphosphinane 4-oxide]: the remaining binding at 1 µM on panel of 468 kinases [1] was determined as 100%; on panel of 468 kinases [2], 62%; at panel of 468 kinases [3] it was 97%; on panel of 468 kinases [4], 42%; on panel of 468 kinases [5], 100%; at panel of 468 kinases [6], 100%. For the same compound, the remaining binding at 1 µM on panel of 468 kinases [7] is 86%; at panel of 468 kinases [8], 100%; on panel of 468 kinases [9], 0.65%; at panel of 468 kinases [10], 100%; at panel of 468 kinases [11], 100%; at panel of 468 kinases [12] it was 81%. Also, the remaining binding at 1 µM at panel of 468 kinases [13] is 100%; at panel of 468 kinases [14], 100%; on panel of 468 kinases [15] it was 85%.
